In ChEMBL document CHEMBL5604062, “ASAP - ZIKV NS2B-NS3 protease fluorescence dose response” (2024):
Several values for one entry are separate records, joined by “and”; a condition that tells them apart may be missing. Equal values may be shown once.

These compounds were tested against Nonstructural protein 3 (Zika virus, UniProt A0A024AXB9) (assay: Functional biochemical assay to identify treatments for viral infectious disease that targets Zika NS2B-NS3 protease. Utilizing a direct enzyme activity measurement method, reading the fluorescence intensity is used to characterize the relative potency of inhibitors as IC50.).
Parameters: species or system PRVABC59

Nonstructural protein 3, sequence (A0A024AXB9 whole entry): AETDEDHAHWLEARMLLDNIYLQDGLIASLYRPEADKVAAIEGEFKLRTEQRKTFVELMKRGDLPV

Row | Compound | IC50
1 | O=C(Nc1cc2c(c(C3=CC[C@H](O)CC3)c1)CNC2)c1cc(Cl)cc2[nH]ncc12 | 0.065 µM and 0.041 µM
2 | Cc1ncc(-c2cc(F)cc(C(=O)Nc3ccc4c(c3)CNC4)c2)s1 | 0.071 µM and 0.052 µM
3 | NCc1cccc(NC(=O)[C@H]2C[C@@H](C(F)(F)F)C[C@@H](C(F)(F)F)C2)c1 | > 99.5 µM
4 | O=C(O)c1cc(Cl)ccc1S(=O)(=O)Nc1ccc(S(=O)(=O)N2CCCCC2)cc1 | > 99.5 µM
5 | C[S@@+]([O-])c1nncn1Cc1ccc(Cl)s1 | > 99.5 µM
6 | CCn1nccc1S(=O)(=O)N[C@@H](C(=O)Nc1cccc(CN)c1)c1ccc(OCc2ccccc2)cc1 | > 99.5 µM
7 | Cc1cccc(-c2nc3c(C(=O)Nc4ccc5c(c4)CNC5)cc(F)cc3[nH]2)c1 | 0.112 µM and 0.159 µM
8 | Cc1cc(NC(=O)c2cc(C3CC3)n(C)c2C)ncc1S(N)(=O)=O | > 99.5 µM
9 | O=C(N[C@H](C(=O)NCc1cccc(CC(F)(F)F)c1)c1ccc(OCc2ccccc2)cc1)OCc1ccccc1 | > 99.5 µM
10 | NCc1cccc(NC(=O)c2cc(Cl)cc(Cl)c2O)c1 | > 99.5 µM
11 | O=C(c1cccnc1)N1CCN(Cc2c[nH]c3ccccc23)CC1 | > 99.5 µM
12 | N#Cc1cccc(-c2nc3c(C(=O)Nc4ccc5c(c4)CNC5)cc(Cl)cc3[nH]2)c1 | 0.099 µM and 0.018 µM and 0.048 µM
13 | O=C(Nc1cccc(N2CCNCC2)c1)c1cccc2ncccc12 | > 99.5 µM
14 | C=CC[C@]1(NC(=O)c2cc(Cl)cc(NC(=O)OCc3ccccc3)c2)CCNC1 | > 99.5 µM
15 | COc1ccc2nc(C)cc(C(=O)Nc3cccc(CN)c3)c2c1 | > 99.5 µM
16 | CN(C)c1cc(-c2ccc(S(=O)(=O)Nc3ccc(Cl)cc3C(=O)O)cc2)ccn1 | > 99.5 µM
17 | O=C(Nc1cc(Cl)cc(C(=O)Nc2ccc3c(c2)OCO3)c1)OCc1ccccc1 | > 99.5 µM
18 | O=C(O)c1sc2cccnc2c1Br | > 99.5 µM
19 | CCn1ccnc(N2CC[C@H](c3cccnc3)C2)c1=O | > 99.5 µM
20 | COc1ccc(NS(=O)(=O)c2ccc(Cl)cc2C(=O)O)cc1N1CCCC1=O | > 99.5 µM
21 | CCC(=O)N1CCc2ccc(NS(=O)(=O)c3ccc(Cl)cc3C(=O)O)cc21 | > 99.5 µM

Row | Compound | IC50
22 | CCn1cc(-c2ccccc2N)nc(N2CC[C@@H](CO)C2)c1=O | > 99.5 µM
23 | Cc1cc(CC(=O)O)ccc1Cc1c[nH]c2ccc(Cl)cc12 | > 99.5 µM
24 | NC(=O)c1cn(C[C@H]2CCCN2c2ccnc3ccccc23)nn1 | > 99.5 µM
25 | CN1CCc2c(cccc2NC(=O)c2cc(Cl)cc(NC(=O)OCc3ccccc3)c2)C1 | > 99.5 µM
26 | O=C(O)c1cc(Cl)c(F)cc1S(=O)(=O)Nc1ccc(Oc2ccccc2Cl)cc1 | 33.5 µM and 34.2 µM
27 | N=C(N)Nc1ccc(NC(=O)Oc2ccccc2)cc1 | > 100 µM
28 | O=C(Nc1cc(Cl)cc(C(=O)Nc2ncc3n2CCNC3)c1)OCc1ccccc1 | > 99.5 µM
29 | N#CC[C@H](N)c1cccc(NC(=O)c2cc(Cl)cc(NC(=O)OCc3ccccc3)c2)c1 | > 99.5 µM
30 | Cn1cc(C(=O)N[C@@H](C(=O)Nc2cccc(CN)c2)c2ccc(OCc3ccccc3)cc2)cn1 | > 99.5 µM
31 | c1ccc2c([C@H]3CCN(CCC4CCOCC4)C3)c[nH]c2c1 | > 99.5 µM
32 | c1cncc(CN2CC[C@H](NCc3c[nH]c4ccccc34)C2)c1 | > 99.5 µM
33 | Cn1cc(CNC(=O)[C@H](Nc2ccc3c(c2)CNC3)c2cc(Cl)cc(C3CC3)c2)cn1 | 0.085 µM and 0.065 µM
34 | O=C(Nc1ccc2c(c1)CNC2)c1cccc2[nH]c(=O)[nH]c12 | 0.068 µM and 0.064 µM
35 | NCc1ccc(-c2ncc(OCC3CCNCC3)nc2-c2ccc(C3CCOCC3)cc2)cc1 | > 99.5 µM
36 | O=C(O)c1ccc2nc(Cc3c[nH]c4ccc(Cl)cc34)cn2c1 | > 99.5 µM
37 | CS(=O)(=O)N1CCC([C@@H](NC(=O)OCc2ccccc2)C(=O)Nc2cccc(CN)c2)CC1 | > 99.5 µM
38 | O=C(O)c1cscc1NS(=O)(=O)c1ccc(Oc2ccccc2Cl)cc1 | > 99.5 µM
39 | N=C(N)NCCc1ccc(NC(=O)c2ccccc2)cc1 | > 198 µM
40 | O=C(Nc1cc(Cl)cc([C@H](Nc2cccc(-c3nn[nH]n3)c2)C(=O)N[C@H]2CCOC2)c1)OCc1ccccc1 | > 99.5 µM
41 | Cc1c(C(=O)Nc2nccc3c2CNCC3)cc(C2CC2)n1C | > 99.5 µM
42 | COc1cc(C#N)cc([C@H](Nc2ccc3c(c2)CNC3)C(=O)NCC(F)F)c1 | 0.042 µM and 0.031 µM

Row | Compound | IC50
43 | CN(C)CCC(=O)N1CCC([C@@H](NC(=O)OCc2ccccc2)C(=O)Nc2cccc(CN)c2)CC1 | > 99.5 µM
44 | O=C(N[C@@H](C(=O)Nc1ccccn1)c1ccc(OCc2ccccc2)cc1)OCc1ccccc1 | > 99.5 µM
45 | NCc1cccc(NC(=O)c2ccnc3[nH]c(C4CCOCC4)nc23)c1 | > 99.5 µM
46 | O=C(O)C[C@H]1CN(c2ccc(-c3cc(Cl)cc(NC(=O)OCc4ccccc4)c3)cn2)CCO1 | > 99.5 µM
47 | CCn1c(=O)c(N2CCC[C@H]2c2nncs2)nc2ccccc21 | > 99.5 µM
48 | c1ccc2c(CNC3CCN(Cc4cscn4)CC3)c[nH]c2c1 | > 99.5 µM
49 | O=C(c1cc(Cl)ccc1NS(=O)(=O)c1ccc(Oc2ccccc2Cl)cc1)N1CC[C@H](CO)C1 | > 99.5 µM
50 | CCn1cc(-c2ccc(C(F)F)nc2)nc(N2CC[C@@H](CO)C2)c1=O | > 99.5 µM
51 | Cc1onc(C(=O)Nc2cccc(CN)c2)c1COc1cccc(F)c1 | > 99.5 µM
52 | CC(=O)Nc1cccc(CNC(=O)C2CCN(c3ccc(C=O)cc3)CC2)c1 | > 99.9 µM
53 | O=C(Nc1cc(Cl)cc(C(=O)N2CCC[C@H]2C(=O)O)c1)OCc1ccccc1 | > 99.5 µM
54 | N#Cc1cc(CN)cc([C@H]2C[C@@H]2c2cc(Cl)cc(NC(=O)OCc3ccccc3)c2)c1 | > 99.5 µM
55 | O=C(O)COc1cccc(NC(=O)c2cc(Cl)cc(NC(=O)OCc3ccccc3)c2)c1 | > 99.5 µM
56 | O=C(O)c1cc(Cl)ccc1NS(=O)(=O)c1ccc(N[C@H]2CCCOC2)nc1 | > 99.5 µM
57 | c1cncc(-c2cc(CN3CCC(c4cscn4)CC3)n[nH]2)c1 | > 99.5 µM
58 | CN1C[C@H](c2cccc(CN)c2)[C@@H](c2cc(Cl)cc(NC(=O)OCc3ccccc3)c2)C1 | > 99.5 µM
59 | O=C(O)c1cc(Cl)ccc1CNS(=O)(=O)c1ccc(Oc2ccccc2Cl)cc1 | > 99.5 µM
60 | CCn1ccnc(N2CC[C@H](c3ccn[nH]3)C2)c1=O | > 99.5 µM
61 | N=C(N)NCc1ccc(OC(=O)Nc2ccccc2)cc1 | > 100 µM

More lines, now with the values ahead:

Row | IC50 | Compound
62 | > 99.5 µM | NCc1cccc(NC(=O)[C@@H](NC(=O)OCc2ccccc2)C2CCN(S(=O)(=O)C3CCCC3)CC2)c1
63 | 23.2 µM | O=C(NCc1ccc2c(c1)CCNC2)c1cc(Cl)cc2[nH]ncc12
64 | 52.9 µM | CC[C@H](Cc1nnn[nH]1)c1ccc(NC(=O)c2cc(Cl)cc(-n3cccc3)c2)cc1
65 | > 99.5 µM | O=C(Nc1cccc(-c2nnn[nH]2)c1)c1ccc(-c2cccnc2)s1
66 | > 99.5 µM | O=C(Nc1cc(Cl)cc(C(=O)NCc2n[nH]c3c2CNCC3)c1)OCc1ccccc1
67 | > 99.5 µM | NS(=O)(=O)c1ccc(N2CCC=C(c3cccc(O)c3)C2)c2ncccc12
68 | > 99.5 µM | CC(C)[C@@H]1C(=O)O[C@H]1C(=O)O
69 | 17.3 µM | Cc1ccc(COc2ccc(S(=O)(=O)Nc3ccc(Cl)cc3C(=O)O)cc2)cc1
70 | 67 µM | NC[C@H]1C[C@](F)(CNC(=O)c2cc(Cl)cc(NC(=O)OCc3ccccc3)c2)C1
71 | > 99.5 µM | CCc1cccc2c(CN3CCC(c4cscn4)CC3)c[nH]c12
72 | 0.265 µM | O=C(Nc1ccc2c(c1)CNC2)c1cc(Br)cc2[nH]c([C@H]3CCOC3)nc12
73 | > 99.5 µM | C=CC[C@H](Nc1cccc(Cl)c1)c1cccc(-c2nn[nH]n2)c1
74 | > 25 µM | O=C1Cc2c(cccc2C(=O)Nc2ccn(C[C@H]3CCOC3)n2)N1
75 | > 99.5 µM | CCC1([C@H](NC(=O)OCc2ccccc2)C(=O)NCc2cccc(CN)c2)CCCCC1
76 | 0.163 µM | CN1CCC[C@H](c2nc3c(C(=O)Nc4ccc5c(c4)CNC5)cc(F)cc3[nH]2)C1=O
77 | > 25 µM | NCCCc1ccnc(NC(=O)c2nnc(C3CC3)s2)c1
78 | > 25 µM | Cc1c(C(=O)Nc2cc(C(=O)N(C)C3COC3)ccn2)cc(C2CC2)n1C
79 | > 25 µM | CCn1c(C)cc(C(=O)Nc2cc(CCCN)ccn2)c1C
80 | 0.116 µM | N#C[C@H](Nc1ccc2c(c1)CNC2)c1cc(Cl)cc2[nH]ncc12
81 | 98.8 µM | COCc1ccccc1Nc1ccc(S(=O)(=O)Nc2ccc(Cl)cc2C(=O)O)cn1
82 | 19.9 µM | CCNC(=O)Nc1cc(Cl)cc(C(=O)Nc2cccc(C3CCNCC3)c2)c1
83 | 55.5 µM | NCc1cccc(NC(=O)c2cc(Cl)ccc2OCC(F)(F)F)c1

Row | IC50 | Compound
84 | 48.5 µM | NCc1cccc(NC(=O)c2cncc(Cl)c2)c1
85 | 1.35 µM | Clc1cc([C@H](C#CC2CC2)Nc2ccc3c(c2)CNC3)c2cn[nH]c2c1
86 | 14 µM | NCc1cccc(NC(=O)[C@@H](NC(=O)OCc2ccccc2)c2ccc(-c3cccc4c3CCO4)cc2)c1
87 | 3.16 µM | COCCO[C@]1(C)C(=O)Nc2cc(F)cc(C(=O)Nc3ccc4c(c3)CNC4)c21
88 | > 25 µM | COCCNC(=O)[C@H](Nc1cccc([C@H]2CCOC2)c1)c1cc(Br)cc2[nH]ccc12
89 | 19.6 µM | CNCc1cccc(NC(=O)c2cc(Cl)cc(NC(=O)OCc3ccccc3)c2)c1
90 | 11.4 µM | NCc1cc(C(=O)N[C@H]2CCCOC2)cc([C@@H]2C[C@H]2c2cc(Cl)cc(NC(=O)OCc3ccccc3)c2)c1
91 | 0.215 µM | O=C(Nc1ccc2c(c1)CNC2)c1cc(F)cc(-c2ccncc2)c1
92 | 15.6 µM | NCc1cccc([C@H](C#CCO)Nc2cc(Cl)cc(NC(=O)OCc3ccccc3)c2)c1
93 | > 25 µM | Cn1cc2cc(C#N)cc(-c3ccc4[nH]c(C(=O)O)cc4c3)c2n1
94 | 15.2 µM | O=C(Nc1cc(Cl)cc(C(=O)Nc2ccc3c(c2)OCCNC3)c1)OCc1ccccc1
95 | 94.4 µM | NCc1cccc(NC(=O)[C@H]2[C@H]3CCCC[C@H]3[C@@H]2NC(=O)OCc2ccccc2)c1
96 | 1.77 µM | O=C(Nc1ccc2c(c1)CNC2)c1ccc2c(c1)C1(CC1)C(=O)N2
97 | 0.539 µM | O=C(Nc1ccc2c(c1)CNC2)c1cc(Cl)cc2nn(C3COC3)cc12
98 | 25.3 µM | C=CC[C@H](Nc1cccc(CN)n1)c1cc(Cl)cc(NC(=O)OCc2ccccc2)c1
99 | > 25 µM | Cn1cc(C(F)(F)F)nc1C(=O)Nc1cc(-c2cccnc2)ccn1
100 | > 25 µM | O=C(Nc1ccc2[nH]c(=O)[nH]c2c1)c1cc(F)cc2[nH]ncc12
101 | 62.1 µM | O=C(Nc1ccc2c(c1)CNC2)c1ccn[nH]1
102 | 19.6 µM | O=C(Nc1ccc2c(c1)CNC2)c1cnnc2ccccc12
103 | 0.366 µM | O=C(Nc1cnc2c(c1)CNCC2)c1cc(Cl)cc2[nH]ncc12
104 | 11.3 µM | C=CC[C@H](Nc1ccc(-c2nn[nH]n2)cc1)c1cc(Cl)cc(NC(=O)OCc2ccccc2)c1
